Experimental data taken from paper PMC11859928, “Design, Synthesis, and Antiproliferative Activity of Novel Indole/1,2,4-Triazole Hybrids as Tubulin Polymerization Inhibitors” (Pharmaceuticals, 2025).
Where two headings read alike, the source gives them in different places.

What was measured:
A498 = assay: NCI five-dose assay; type: cell-based, human; settings: A498, Renal cancer; for LC50 / GI50: Homo sapiens; for LC50: 48 h; for GI50: read-out: GI50 Conc. per Cell Lines
RPMI-8226 = assay: NCI five-dose assay; type: cell-based, human; settings: RPMI-8226, Leukemia; for CC50 / GI50: Homo sapiens; for CC50: 48 h, read-out: LC50 (the source's name); for GI50: read-out: GI50 Conc. per Cell Lines
IGROV1 = assay: NCI five-dose assay; type: cell-based, human; settings: IGROV1, Ovarian cancer; for CC50 / GI50: Homo sapiens, IGROV-1; for CC50: 48 h, read-out: LC50 (the source's name); for GI50: read-out: GI50 Conc. per Cell Lines
RXF393 = assay: NCI five-dose assay; type: cell-based, human; settings: RXF393, Renal cancer; for LC50 (concentration killing 50% of cells) / GI50: Homo sapiens, RXF 393; for LC50 (concentration killing 50% of cells): 48 h; for GI50: read-out: GI50 Conc. per Cell Lines
TK-10 = assay: NCI five-dose assay; type: cell-based, human; settings: TK-10, Renal cancer; for CC50 / GI50: Homo sapiens; for CC50: 48 h, read-out: LC50 (the source's name); for GI50: read-out: GI50 Conc. per Cell Lines
OVCAR-4 = assay: NCI five-dose assay; type: cell-based, human; settings: OVCAR-4, Ovarian cancer; for LC50 / GI50: Homo sapiens; for LC50: 48 h; for GI50: read-out: GI50 Conc. per Cell Lines
SNB-19 = assay: NCI five-dose assay; type: cell-based, human; settings: SNB-19, CNS cancer; for CC50 / GI50: Homo sapiens; for CC50: 48 h, read-out: LC50 (the source's name); for GI50: read-out: GI50 Conc. per Cell Lines
HOP-62 = assay: NCI five-dose assay; type: cell-based, human; settings: HOP-62, Non-small cell lung cancer; for CC50 / GI50: Homo sapiens; for CC50: 48 h, read-out: LC50 (the source's name); for GI50: read-out: GI50 Conc. per Cell Lines
MOLT-4 = assay: NCI five-dose assay; type: cell-based, human; settings: MOLT-4, Leukemia; for GI50: read-out: GI50 Conc. per Cell Lines
DU-145 = assay: NCI five-dose assay; type: cell-based, human; settings: DU-145, Prostate cancer; for GI50: read-out: GI50 Conc. per Cell Lines
EKVX = assay: NCI five-dose assay; type: cell-based, human; settings: Non-small cell lung cancer; for CC50 / GI50: Homo sapiens; for CC50: 48 h, read-out: LC50 (the source's name); for GI50: read-out: GI50 Conc. per Cell Lines
HT29 = assay: NCI five-dose assay; type: cell-based, human; settings: HT29, Colon cancer; for GI50: read-out: GI50 Conc. per Cell Lines
SF-268 = assay: NCI five-dose assay; type: cell-based, human; settings: SF-268, CNS cancer; for CC50 / GI50: Homo sapiens; for CC50: 48 h, read-out: LC50 (the source's name); for GI50: read-out: GI50 Conc. per Cell Lines
MALME-3M = assay: NCI five-dose assay; type: cell-based, human; settings: Melanoma; for GI50: read-out: GI50 Conc. per Cell Lines
UACC-62 = assay: NCI five-dose assay; type: cell-based, human; settings: UACC-62, Melanoma; for CC50 / GI50: Homo sapiens; for CC50: 48 h, read-out: LC50 (the source's name); for GI50: read-out: GI50 Conc. per Cell Lines
CCRF-CEM = assay: NCI five-dose assay; type: cell-based, human; settings: Leukemia; for CC50 / GI50: Homo sapiens; for CC50: 48 h, read-out: LC50 (the source's name); for GI50: read-out: GI50 Conc. per Cell Lines
A549/ATCC = assay: NCI five-dose assay; type: cell-based, human; settings: Non-small cell lung cancer; for CC50 / GI50: Homo sapiens; for CC50: 48 h, read-out: LC50 (the source's name); for GI50: read-out: GI50 Conc. per Cell Lines
UO-31 = assay: NCI five-dose assay; type: cell-based, human; settings: UO-31, Renal cancer; for CC50 / GI50: Homo sapiens; for CC50: 48 h, read-out: LC50 (the source's name); for GI50: read-out: GI50 Conc. per Cell Lines
SNB-75 = assay: NCI five-dose assay; type: cell-based, human; settings: SNB-75, CNS cancer; for CC50 / GI50: Homo sapiens; for CC50: 48 h, read-out: LC50 (the source's name); for GI50: read-out: GI50 Conc. per Cell Lines
[1] = system: panel of 60 human tumor cell lines; assay: NCI five-dose assay, full panel; type: cell-based
SW-620 = assay: NCI five-dose assay; type: cell-based, human; settings: SW-620, Colon cancer; for CC50 / GI50: Homo sapiens; for CC50: 48 h, read-out: LC50 (the source's name); for GI50: read-out: GI50 Conc. per Cell Lines
Leukemia subpanel = assay: NCI five-dose assay, subpanel mean; type: cell-based, human; settings: for GI50: Homo sapiens, average sensitivity of all cell lines of the Leukemia subpanel, read-out: GI50 Subpanel MID b; for GI50 Selectivity Ratio (MID a/MID b): Leukemia subpanel
MDA-MB-435 = assay: NCI five-dose assay; type: cell-based, human; settings: MDA-MB-435, Melanoma; for CC50 / GI50: Homo sapiens; for CC50: 48 h, read-out: LC50 (the source's name); for GI50: read-out: GI50 Conc. per Cell Lines
K-562 = assay: NCI five-dose assay; type: cell-based, human; settings: K-562, Leukemia; for CC50 / GI50: Homo sapiens, K562; for CC50: 48 h, read-out: LC50 (the source's name); for GI50: read-out: GI50 Conc. per Cell Lines
SN12C = assay: NCI five-dose assay; type: cell-based, human; settings: Renal cancer; for CC50 / GI50: Homo sapiens; for CC50: 48 h, read-out: LC50 (the source's name); for GI50: read-out: GI50 Conc. per Cell Lines
SK-MEL-28 = assay: NCI five-dose assay; type: cell-based, human; settings: SK-MEL-28, Melanoma; for CC50 / GI50: Homo sapiens; for CC50: 48 h, read-out: LC50 (the source's name); for GI50: read-out: GI50 Conc. per Cell Lines
HCT-116 = assay: NCI five-dose assay; type: cell-based, human; settings: HCT-116, Colon cancer; for GI50: read-out: GI50 Conc. per Cell Lines
[2] = Homo sapiens, 48 h, read-out: LC50 (the source's name)
[3] = average sensitivity of all cell lines, read-out: GI50 MID a
[4] = most of the tested cell lines across nine subpanels, read-out: GI50 values, range across nine subpanels

## Cc1ccc(C(=O)CSc2nnc(-c3c[nH]c4ccccc34)n2-c2ccccc2)cc1 [Compound 6h, 2-((5-(1H-Indol-3-yl)-4-phenyl-4H-1,2,4-triazol-3-yl)thio)-1-(p-tolyl)ethenone]
A498
  TGI Conc. per Cell Lines: 69.40 µM
  LC50: > 100 µM
  GI50: 22.1 µM
RPMI-8226
  CC50: > 100 µM
  GI50: 29.8 µM
  TGI Conc. per Cell Lines: ˃100 µM
IGROV1
  CC50: 61 µM
  GI50: 16.1 µM
  TGI Conc. per Cell Lines: 31.30 µM
RXF393
  LC50 (concentration killing 50% of cells): 61.5 µM
  GI50: 13.6 µM
  TGI Conc. per Cell Lines: 28.90 µM
TK-10
  CC50: 85 µM
  GI50: 23.2 µM
  TGI Conc. per Cell Lines: 44.40 µM
OVCAR-4
  LC50: > 100 µM
  GI50: 14.5 µM
  TGI Conc. per Cell Lines: 41.50 µM
SNB-19
  CC50: 75.3 µM
  GI50: 15.8 µM
  TGI Conc. per Cell Lines: 34.50 µM
HOP-62
  TGI Conc. per Cell Lines: 35.90 µM
  CC50: 80 µM
  GI50: 16.1 µM
MOLT-4; [2]
  CC50: > 100 µM
MOLT-4; Homo sapiens
  GI50: 21.8 µM
MOLT-4
  TGI Conc. per Cell Lines: ˃100 µM
DU-145
  TGI Conc. per Cell Lines: >100 µM
DU-145; [2]
  CC50: > 100 µM
DU-145; Homo sapiens
  GI50: 4.43 µM
EKVX
  CC50: > 100 µM
  GI50: 19 µM
  TGI Conc. per Cell Lines: 98.90 µM
HT29
  TGI Conc. per Cell Lines: 50.50 µM
HT29; Homo sapiens, HT-29, 48 h, read-out: LC50 (the source's name)
  CC50: > 100 µM
HT29; Homo sapiens, HT-29
  GI50: 15.6 µM
SF-268
  CC50: > 100 µM
  GI50: 24.2 µM
  TGI Conc. per Cell Lines: 78.90 µM
MALME-3M; Homo sapiens
  GI50: 16.2 µM
MALME-3M
  TGI Conc. per Cell Lines: 36.20 µM
UACC-62
  CC50: 95.1 µM
  GI50: 15.3 µM
  TGI Conc. per Cell Lines: 38.10 µM
CCRF-CEM
  CC50: > 100 µM
  GI50: 54.4 µM
  TGI Conc. per Cell Lines: ˃100 µM
A549/ATCC
  CC50: > 100 µM
  GI50: 13.9 µM
  TGI Conc. per Cell Lines: 48.50 µM
UO-31
  CC50: 69.5 µM
  GI50: 14.2 µM
  TGI Conc. per Cell Lines: 31.40 µM
SNB-75
  CC50: 68 µM
  GI50: 12.9 µM
  TGI Conc. per Cell Lines: 29.60 µM
[1]; [3]
  GI50: 19.3 µM
[1]; [4]
  GI50: 8.42 to 33.5 µM
SW-620
  CC50: > 100 µM
  GI50: 30.3 µM
  TGI Conc. per Cell Lines: >100 µM
Leukemia subpanel
  GI50: 33.5 µM
  GI50 Selectivity Ratio (MID a/MID b): 0.58
MDA-MB-435
  CC50: > 100 µM
  GI50: 22.8 µM
  TGI Conc. per Cell Lines: 65.40 µM
K-562
  CC50: > 100 µM
  GI50: 22.1 µM
  TGI Conc. per Cell Lines: ˃100 µM
SN12C
  CC50: > 100 µM
  GI50: 19.4 µM
  TGI Conc. per Cell Lines: 48.90 µM
SK-MEL-28
  CC50: > 100 µM
  GI50: 19.6 µM
  TGI Conc. per Cell Lines: 52.10 µM
HCT-116
  TGI Conc. per Cell Lines: 60.40 µM
HCT-116; [2]
  CC50: > 100 µM
HCT-116; Homo sapiens
  GI50: 18.7 µM

## Cc1ccc(/C(CSc2nnc(-c3c[nH]c4ccccc34)n2-c2ccccc2)=N/O)cc1 [Compound 7h, (Z)-2-((5-(1H-Indol-3-yl)-4-phenyl-4H-1,2,4-triazol-3-yl)thio)-1-(p-tolyl)ethanone Oxime]
A498
  TGI Conc. per Cell Lines: 89.10 µM
  LC50: > 100 µM
  GI50: 24.1 µM
RPMI-8226
  CC50: > 100 µM
  GI50: 2.05 µM
  TGI Conc. per Cell Lines: 4.81 µM
IGROV1
  CC50: 9.07 µM
  GI50: 2.09 µM
  TGI Conc. per Cell Lines: 4.35 µM
RXF393
  LC50 (concentration killing 50% of cells): 7.65 µM
  GI50: 1.85 µM
  TGI Conc. per Cell Lines: 3.76 µM
TK-10
  CC50: 7.9 µM
  GI50: 1.9 µM
  TGI Conc. per Cell Lines: 3.87 µM
OVCAR-4
  LC50: 7.04 µM
  GI50: 1.75 µM
  TGI Conc. per Cell Lines: 3.51 µM
SNB-19
  CC50: 8.46 µM
  GI50: 1.87 µM
  TGI Conc. per Cell Lines: 3.97 µM
HOP-62
  TGI Conc. per Cell Lines: 3.42 µM
  CC50: 6.93 µM
  GI50: 1.69 µM
MOLT-4; Homo sapiens
  GI50: 2.04 µM
MOLT-4
  TGI Conc. per Cell Lines: 4.23 µM
DU-145
  TGI Conc. per Cell Lines: 4.01 µM
DU-145; Homo sapiens
  GI50: 1.94 µM
EKVX
  CC50: > 100 µM
  GI50: 2.15 µM
  TGI Conc. per Cell Lines: 5.58 µM
HT29
  TGI Conc. per Cell Lines: 4.43 µM
HT29; Homo sapiens, HT-29
  GI50: 1.99 µM
SF-268
  CC50: > 100 µM
  GI50: 1.99 µM
  TGI Conc. per Cell Lines: 4.66 µM
MALME-3M; [2]
  CC50: 59.1 µM
MALME-3M; Homo sapiens
  GI50: 2.26 µM
MALME-3M
  TGI Conc. per Cell Lines: 5.57 µM
UACC-62
  CC50: 6.31 µM
  GI50: 1.69 µM
  TGI Conc. per Cell Lines: 3.26 µM
CCRF-CEM
  CC50: > 100 µM
  GI50: 2.14 µM
  TGI Conc. per Cell Lines: 4.98 µM
A549/ATCC
  CC50: > 100 µM
  GI50: 3.55 µM
  TGI Conc. per Cell Lines: 69.70 µM
UO-31
  CC50: 9.47 µM
  GI50: 1.82 µM
  TGI Conc. per Cell Lines: 4.15 µM
SNB-75
  CC50: 5.48 µM
  GI50: 1.4 µM
  TGI Conc. per Cell Lines: 2.77 µM
[1]; [3]
  GI50: 3 µM
[1]; [4]
  GI50: 1.85 to 5.76 µM
SW-620
  CC50: 7.04 µM
  GI50: 1.79 µM
  TGI Conc. per Cell Lines: 3.55 µM
Leukemia subpanel
  GI50: 2.03 µM
  GI50 Selectivity Ratio (MID a/MID b): 1.47
MDA-MB-435
  CC50: 5.72 µM
  GI50: 1.63 µM
  TGI Conc. per Cell Lines: 3.05 µM
K-562
  CC50: > 100 µM
  GI50: 2.01 µM
  TGI Conc. per Cell Lines: 4.97 µM
SN12C
  CC50: 36.7 µM
  GI50: 2.33 µM
  TGI Conc. per Cell Lines: 6.80 µM
SK-MEL-28
  CC50: > 100 µM
  GI50: 5.67 µM
  TGI Conc. per Cell Lines: 38.7 µM
HCT-116
  TGI Conc. per Cell Lines: 3.65 µM
HCT-116; Homo sapiens
  GI50: 1.87 µM
